What is called EC50 is the concentration at which the effect is half-maximal. Lower therefore signals a more potent agent.

For the assay, the target named is T1, human GPR142 receptor (Homo sapiens, UniProt Q7Z601).
T1 construct: Gene ID: 350383) was cloned; expressed in transfected cells
T1 sequence (Q7Z601 1-462): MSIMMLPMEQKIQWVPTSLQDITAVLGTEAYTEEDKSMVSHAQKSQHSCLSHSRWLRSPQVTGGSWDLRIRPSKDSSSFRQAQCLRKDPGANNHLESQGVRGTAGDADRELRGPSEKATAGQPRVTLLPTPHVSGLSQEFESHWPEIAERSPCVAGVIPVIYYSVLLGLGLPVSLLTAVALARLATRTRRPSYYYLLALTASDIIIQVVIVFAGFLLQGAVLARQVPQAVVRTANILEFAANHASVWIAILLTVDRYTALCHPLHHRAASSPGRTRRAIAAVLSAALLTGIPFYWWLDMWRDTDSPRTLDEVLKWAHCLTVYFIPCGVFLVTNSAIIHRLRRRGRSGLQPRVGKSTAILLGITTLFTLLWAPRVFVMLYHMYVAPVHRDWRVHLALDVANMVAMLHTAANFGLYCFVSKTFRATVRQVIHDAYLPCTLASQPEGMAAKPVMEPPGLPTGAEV
Briefly: IP1 accumulation HTRF assay for GPR142 agonist activity in HEK293 FLPinTREX cells. The assay is classed as cell-based. Particulars: HEK293 FLPinTREX cells stably expressing human GPR142, IP1 generation (IP-One HTRF), 60 minutes at 37° C. How it is done: This assay allows monitoring activity of compounds acting on Gq-coupled receptors. The principle of the assay is based on the competition between IP1 generated in the cells with d2-labeled IP1 for binding to a monoclonal anti-IP1 […] cryptate that allows for measuring quantitative changes using the Homogeneous Time Resolved Fluorescence. LiCl is added to the cell stimulation buffer, causing IP1 to accumulate upon receptor activation.
The open reading frame encoding the human GPR142 receptor (primary accession number: NM_181790; Gene ID: 350383) was cloned into the pcDNA5/FRT/TO vector for stable, and inducible expression using the Flp-In™ T-REx™ technology in HEK293 FLPinTREX cells. For stable expression, HEK293 FLPinTREX cells were co-transfected with the vector encoding human GPR142 and the pOG44 plasmid that constitutively expresses the Flp recombinase for stable integration of the human GPR142 into the genome of the Flp-In™ T-REx™ host cell line. Stably expressing clones were obtained by hygromycin (100 μg/ml) selection. To test for GPR142 agonist activity the human GPR142 receptor cell clone was thawed at 37° C. and immediately diluted with cell culture medium (Hams F12 medium; 10% FBS, 15 μg/ml Blasticidin, 100 μg/ml Hygromycin B). After centrifugation, the cell pellet was resuspended in medium, and distributed into the assay well plates (10000 cells/well; 20 μl/well). Receptor expression was induced by adding 0.1 μg/ml Doxycyclin to the culture medium. The plates were incubated for one hour at room temperature, followed by a 24 hours incubation at 37° C./5% CO2. After washing the cells in the plate twice with 60 μl assay buffer (10 mM HEPES, 1 mM CaCl2, 0.5 mM MgCl2, 4.2 mM KCl, 146 mM NaCl, 5.5 mM Glucose, 50 mM LiCl and 0.1% BSA, pH 7.4; 20 μl buffer remained in the wells after washing), 10 μl per well of test compound diluted in assay buffer was added to the wells. The assay plate was incubated for 60 minutes at 37° C. Then 5 μl per well of Anti-IP1-Cryptate Tb solution (prepared by 1:33 dilution of stock with Lysis buffer from IP-One Kit) and 5 μl per well of IP1-d2 (Prepared by 1:33 dilution of stock with Lysis buffer from IP-One Kit) dilution were added, followed by another 60 minutes incubation (light protected, room temperature). The emissions at 615 nm and 665 nm (excitation wavelength: 320 nm) were measured on the EnVision™ reader (PerkinElmer). The ratio between the emission at 665 nm and 615 was calculated by the reader.
Each assay microtiter plate contained 8 wells in with vehicle controls instead of compound (100% CTL; low values, negative control) and 8 wells with a reference GPR142 agonist (200% CTL; high values; positive control). An IP1 standard curve was prepared according to the manufacturer.
The ratio between the emission at 665 nm and the emission at 615 nm (Em665/Em615 ratio) was calculated and the signals for the test items were normalized using the positive and negative controls by the following formula: 100−(100×[(ratio(sample)−ratio(low))/(ratio(high)−ratio(low))].
On the technique in general: Time-resolved FRET reads energy transfer from a long-lived donor to a nearby acceptor.
`Cc1ccc(C(=O)Nc2cccc(C(F)(F)F)c2)cc1-n1cc(-c2cncn2C)nn1` [Example 1]: the EC50 stood at 0.4 nM.
Consider `Cn1cncc1-c1cn(-c2cccc(C(=O)Nc3cccc(C(F)(F)F)c3)c2)nn1` [Example 2, 3-[4-(1-Methyl-1H-imidazol-5-yl)-1H-1,2,3-triazol-1-yl]-N-[3-(trifluoromethyl)-phenyl]benzamide], for which the EC50 worked out at 0.05 nM.
With `Cn1cncc1-c1cn(-c2cccc(C(=O)Nc3cccc(Cl)c3)c2)nn1` [Example 3], the EC50 came out at 0.21 nM.
The same measure for `Cn1cncc1-c1cn(-c2cccc(C(=O)Nc3cccc(OC(F)(F)F)c3)c2)nn1` [Example 4]: 0.47 nM; for `Cc1ccc(C(=O)Nc2cccc(Cl)c2)cc1-n1cc(-c2cncn2C)nn1` [Example 5]: 0.37 nM.
Compound `Cc1ccc(C(=O)Nc2cccc(OC(F)(F)F)c2)cc1-n1cc(-c2cncn2C)nn1` [Example 6] gave an EC50 of 0.21 nM. Against the preceding compound, the EC50 is about 1.8-fold lower.
As for `Cc1cccc(NC(=O)c2cccc(-n3cc(-c4cncn4C)nn3)c2)c1` [Example 7], the response was half-maximal at 0.37 nM (EC50).
With `Cc1ncn(C)c1-c1cn(-c2cccc(C(=O)Nc3cccc(C(F)(F)F)c3)c2)nn1` [Example 8, 3-[4-(1,4-Dimethyl-1H-imidazol-5-yl)-1H-1,2,3-triazol-1-yl]-N-[3-(trifluoromethyl)-phenyl]benzamide], the midpoint of the response, the EC50, lay at 0.63 nM.
The same measure for `Cn1cncc1-c1cn(-c2cccc(C(=O)Nc3cccc(C(F)(F)F)c3F)c2)nn1` [Example 9]: 0.45 nM; for `Cn1cncc1-c1cn(-c2cccc(C(=O)Nc3cc(F)cc(C(F)(F)F)c3)c2)nn1` [Example 10]: less than 0.38 nM; for `Cn1cncc1-c1cn(-c2cccc(C(=O)Nc3cccc(C#N)c3)c2)nn1` [Example 11]: 0.74 nM.
The same measure for `COC(=O)c1cccc(NC(=O)c2cccc(-n3cc(-c4cncn4C)nn3)c2)c1` [Example 12]: 0.73 nM; for `CN(C)c1cccc(NC(=O)c2cccc(-n3cc(-c4cncn4C)nn3)c2)c1` [Example 13]: 0.85 nM; for `COc1cccc(NC(=O)c2cccc(-n3cc(-c4cncn4C)nn3)c2)c1` [Example 14]: 0.86 nM.
Compound `Cn1cncc1-c1cn(-c2cccc(C(=O)Nc3cccc([N+](=O)[O-])c3)c2)nn1` [Example 15] registered an EC50 of less than 0.38 nM.
In turn, `Cc1cc(Br)cc(NC(=O)c2cccc(-n3cc(-c4cncn4C)nn3)c2)c1` [Example 16] had an EC50 of less than 0.38 nM.
`Cc1ncn(C)c1-c1cn(-c2cccc(C(=O)Nc3cccc(Cl)c3)c2)nn1` [Example 17]: the EC50 turned out to be 0.95 nM. In other words, the sub-nanomolar range.
In turn, `Cc1ncn(C)c1-c1cn(-c2cccc(C(=O)Nc3cccc(OC(F)(F)F)c3)c2)nn1` [Example 18] yielded an EC50 of 0.64 nM. This EC50 and that of the compound before are within 1.5-fold of each other.
The same measure for `Cn1cncc1-c1cn(-c2cccc(C(=O)Nc3cccc(OC(F)F)c3)c2)nn1` [Example 19]: less than 0.38 nM; for `Cn1cncc1-c1cn(-c2cccc(C(=O)Nc3cccc(OC(F)(F)C(F)F)c3)c2)nn1` [Example 20]: 0.64 nM.

The values above are taken from patent US11179371B2, “Triazole benzamide derivatives as GPR142 agonists” (Boehringer Ingelheim International GmbH, priority 2018, dated 2021).
